Measurements: patent US8263044B2, “Stilbene like compounds as novel HDAC inhibitors” (Orchid Research Laboratories Limited, priority 2005, dated 2012)

Experiments:
[1] = test system: MDAMB231/U251; experiment: cells; conditions: 48 h, read-out: MDAMB231/U251 GI50
Method: (§1) Experimental drugs are screened for anti-cancer activity in three cell lines for their GI50, TGI and LC50 values (using five concentrations for each compound). The cell lines are maintained in DMEM containing 10% fetal bovine serum. 96 well micro titer plates are inoculated with cells in 100 μL for 24 h at 37° C., 5% CO2, 95% air and 100% relative humidity. 5000 HCT 116 cells/well, 5000 NCIH 460 cells/well and 5000 U251 cells/well are plated. A separate plate with these cell lines is also inoculated to determine cell viability before the addition of the compounds (T0) (See Table I).
(§2) Following 24-hour incubation, experimental drugs are added to the 96 well plates. Each plate contains one of the above cell lines and the following in triplicate: five different concentrations (0.01, 0.1, 1, 10 and 100 μM) of four different compounds, appropriate dilutions of a cytotoxic standard and control (untreated) wells. Compounds are dissolved in DMSO to make 20 mM stock solutions on the day of drug addition and frozen at −20° C. Serial dilutions of these 20 mM stock solutions are made in complete growth medium such that 100 μL of these drug solutions in medium, of final concentrations equaling 0.01, 0.1, 1, 10 and 100 μM can be added to the cells in triplicate. […] (See Table I).
(§3) For T0 measurement, 24 hours after seeding the cells, 10 μL of 3-(4,5-Dimethyl-2-thiazolyl)-2,5-diphenyl-2H-tetrazolium (MTT) solution per well is added and incubation carried out for 3 hours at 37° C., 5% CO2, 95% air and 100% relative humidity, protected from light. Cells incubated with compounds for 48 hours are treated similarly except with the addition of 20 μL MTT solution per well and a subsequent incubation under the same conditions. After 3 hours of MTT incubation, well contents are aspirated carefully followed by addition of 150 μL DMSO per well. Plates are agitated to ensure solution of the formazan crystals in DMSO and absorbance read at 570 nm. (See Table I).
(§4) Percent growth is calculated for each compound's concentration relative to the control and zero measurement wells (T0; viability right before compound addition).
(§5) If a test well's O.D. value is lower than the T0 measurement for that cell line, then, % Growth=(test−zero)/zero×100

[2] = test system: NCIH 460 cells; experiment: cells; conditions: Homo sapiens, NCI-H460, 48 h; for GI50: read-out: NCIH460 GI50; for CC50: read-out: NCIH460 LC50
Method: as §1, §2, §3, §4, §5

[3] = test system: HCT 116 cells; experiment: cells; conditions: Homo sapiens, HCT-116, 48 h; for GI50: read-out: HCT116 GI50; for CC50: read-out: HCT116 LC50
Method: as §1, §2, §3, §4, §5

[4] = test system: HDAC activity (Mouse Liver Extract); experiment: Histone Deacetylase (HDAC) Inhibition Assay using Boc-Lys (Ac)-AMC Substrate; type: biochemical; conditions: mouse liver enzyme; for HDAC Inhibition 1 μM: inhibitor at 1 μM; for HDAC Inhibition 1 μM / HDAC Inhibition 10 μM: in % (unit assumed); for HDAC Inhibition 10 μM: inhibitor at 10 μM
Method: Histone Deacetylase (HDAC) Inhibition Assay using Boc-Lys (Ac)-AMC Substrate: Inhibition of HDAC has been implicated to modulate transcription and to induce apoptosis or differentiation in cancer cells. The fluorometric assay provides a fast and fluorescence based method that eliminates radioactivity, extractions or chromatography, as used in traditional assays. The assay based on two steps. First, the HDAC fluorometric substrate, which comprises an acetylated lysine side chain, is incubated with a sample containing HDAC activity (Mouse Liver Extract). Deacetylation of the substrate sensitizes the substrate, in the second step; treatment with the Trypsin stop solution produces a fluorophore that can be easily analyzed using fluorescence plate reader.
Assay was done in 96 well black microplate and total volume of the assay is 100 ul. Mouse liver enzyme is diluted 1:6 with HDAC buffer. Enzyme cocktail made of 10 ul of diluted enzyme and 30 ul of HDAC buffer. 40 ul of enzyme cocktail dispensed into each well. 10 ul of different concentrations of inhibitor added in to each well, except enzyme control well. Preincubated the plate at 30° C. for 5 minutes. The HDAC reaction is started by adding 50 ul of HDAC substrate (Boc-Lys (Ac)-AMC Substrate) solution. Incubated the plate at 30° C. for 30 minutes. Adding 100 ul of Trypsin stop solution stops the reaction. The plate is incubated again at 30° C. for 20-30 minutes. The release of AMC is monitored by measuring the fluorescence at excitation wavelength of 365 or 360 nm and emission wavelength of 440 or 460 nm. Buffer and substrate alone kept for blank subtraction. (Dennis Wegener et al, Anal. Biochem, 321, 2003, 202-208).

[5] = test system: NCIH460, HCT116, MDAMB231/U251; experiment: Anti-cancer screen, mean GI50 over the cell lines; type: cell-based; conditions: mean over the three cell lines; no unit in table
Method: as §1, §2, §3
Percent growth is calculated for each compound's concentration relative to the control and zero measurement wells (T0; viability right before compound addition). […]

[6] = test system: MDAMB231/U251; experiment: cells; conditions: 48 h, read-out: MDAMB231/U251 LC50

SMILES	GI50 [1] [µM]	GI50 [2] [µM]	CC50 [2] [µM]	GI50 [3] [µM]	CC50 [3] [µM]	HDAC Inhibition 1 μM [4]	HDAC Inhibition 10 μM [4]	GI50 [5] [µM]	CC50 [6] [µM]	IC50 [4] [µM]
COc1cc(/C=C(\C(=O)NCCCCCC(=O)Nc2ccccc2N)c2ccc(O)cc2)cc(OC)c1 [Example 4]	55	45	> 100	9.4	80	16.9	24	36	> 100	
O=C(CCCCCNC(=O)/C(=C\c1ccc(F)c(C(F)(F)F)c1)c1ccc([N+](=O)[O-])cc1)NO [Example 24, (2Z)-3-(4-Fluoro-3-trifluoromethylphenyl)-2-(4-nitrophenyl)-N-[6-(hydroxyamino)-6-oxohexyl]acrylamide]	0.3	16	82	5	> 100	46.1	99.5	7.21	75	
COc1cc(/C=C(\C(=O)NCCCCCC(=O)N(C)OC)c2ccc(O)cc2)cc(OC)c1OC [Example 7, (2Z)-3-(3,4,5-Trimethoxyphenyl)-2-(4-hydroxyphenyl)-N-[6-(N,O dimethylamine)-6-oxohexyl]acrylamide]	0.8	0.01	10	0.98	> 100	7.3	3.8	0.6	> 100	
O=C(CCCCCNC(=O)/C(=C\c1ccccc1[N+](=O)[O-])c1ccc(Cl)cc1)NO [Example 30, (2Z)-3-(2-Nitrophenyl)-2-(4-chlorophenyl)-N-[6-(hydroxyamino)-6-oxohexyl]acrylamide]	3	30	> 100	6	> 100	52.95	84.69	13	> 100	
COc1cc(/C=C(\C(=O)NCCCCCC(=O)NO)c2ccc([N+](=O)[O-])cc2)cc(OC)c1 [Example 9, (2Z)-3-(3,5-Dimethoxyphenyl)-2-(4-nitrophenyl)-N-[6-(hydroxyamino)-6-oxohexyl]acrylamide]	28	45	100	20	95	65.5	98.28	31	90	0.7
COc1cc(/C=C(\C(=O)NCCCCCC(=O)Nc2ccccc2O)c2ccc(O)cc2)cc(OC)c1 [Example 5]	65	50	100	35	90	19.6	35.3	50	92	
CSc1ccc(/C=C(\C(=O)NCCCCCC(=O)Nc2nccs2)c2ccc(F)cc2)cc1 [Example 20, (2Z)-3-(4-Thiomethylphenyl)-2-(4-fluorophenyl)-N-[6-(2-thiazoleamine)-6-oxohexyl]acrylamide]	3	1	> 100	> 100	> 100		5.57	2	> 100	
O=C(CCCCCNC(=O)/C(=C\c1ccc(C(F)(F)F)cc1)c1ccc(F)cc1)NO [Example 47, (2Z)-3-(4-Trifluoromethylphenyl)-2-(4-fluorophenyl)-N-[6-(hydroxyamino)-6-oxohexyl]acrylamide]	7.5	13	98	9	95	49.92	87.19	9.8	> 100	
CC(=O)N(O)C(=O)CCCCCNC(=O)/C(=C\c1ccc(Cl)o1)c1ccc(F)cc1 [Example 53, N-Acetyl-6-{[(2Z)-3-(5-chloro-2-furyl)-2-(4-fluorophenyl)-acrylamide]}-N-hydroxyhexanamide]	5	13	75	5	65	69.80	95.25	7.7	70	0.06
COc1cc(/C=C(\C(=O)NCCCCCC(=O)Nc2ccccc2O)c2ccc(F)cc2)cc(OC)c1 [Example 2]	30	27	56	30	73	7.73	10.46	29	> 100	
O=C(CCCCCNC(=O)/C(=C\c1ccc(F)cc1Cl)c1ccccc1)NO [Example 31, (2Z)-3-(2-Chloro-4-fluorophenyl)-2-(phenyl)-N-[6-(hydroxyamino)-6-oxohexyl]acrylamide]	6	9.7	> 100	5	97	72.20	91.49	6.9	> 100	
CSc1ccc(/C=C(\C(=O)NCCCCCC(=O)Nc2ncc([N+](=O)[O-])s2)c2ccc(F)cc2)cc1 [Example 17, (2Z)-3-(4-Thiomethylphenyl)-2-(4-fluorophenyl)-N-[6-(5-nitro-2-thiazoleamine)-6-oxohexyl]acrylamide]	0.71	0.25	> 100	0.03	> 100	0.7	2.3	0.3	> 100	
O=C(CCCCCNC(=O)/C(=C\c1ccncc1)c1ccc(F)cc1)Nc1ccc(O)cc1[N+](=O)[O-] [Example 15]	> 100	> 100	> 100	> 100	> 100	1.7	4	> 100	> 100	
Cc1ncsc1/C=C(\C(=O)NCCCCCC(=O)NO)c1ccc(Br)cc1 [Example 23, (2Z)-3-(4-Methylthiazol-5-yl)-2-(4-bromophenyl)-N-[6-(hydroxyamino)-6-oxohexyl]acrylamide]	1	0.8	> 100	6	> 100	42.7	81.07	2.6	90	1.8
Cc1ncsc1/C=C(/C(=O)NCCCCCC(=O)NO)c1cccs1 [Example 8, [(2Z)-3-(4-Methyl-1,3-thiazol-5-yl)-2-(2-thienyl))-N-[6-(hydroxyamino)-6-oxohexyl]acrylamide]	6	15	> 100	8	> 100	77.63	99.67	9.7	96	0.55
